One data set relates to SKBR3. Description: In vitro cytotoxicity studies, SKBR3. In kind it is cell-based, human. On the procedure:
(§1) In vitro cytotoxicity studies were conducted to determine the cytotoxic effect of paclitaxel (as a free drug/not in nanoparticle), 17AAG (free drug), paclitaxel+17AAG combination (as free drugs), and paclitaxel+17AAG combination loaded nanoparticles on two human breast cancer cell lines, SKBR3 and MCF7.
(§2) In preparation of the drug combination treatment, one part of each drug was halved and combined, such that each drug in the combination treatment contained half the concentration of their single drug counterparts. This means that the paclitaxel concentration in the combination treatment is 50% of the paclitaxel (single drug) treatment. In other words, the ratio of the concentration in the single drug to its respective concentration in the combination is 2:1. Also, the drug concentration ratio within the combination (paclitaxel: 17AAG) was approximately 1:1.
(§3) For 5 days of assaying, three plates were treated for each day. The first was treated with paclitaxel solution (single drug) and paclitaxel/17AAG combination solution and second with 17AAG solution (single drug) and paclitaxel/17AAG combination solution. The last plate was treated with the combination drug loaded nanoparticle solution and paclitaxel/17AAG combination solution (free drug).

The next data set deals with MCF7. Nature of the data set: In vitro cytotoxicity studies, MCF7. In kind it is cell-based, human. On the procedure: as §1, §2, §3
The conditions of data set [1]: pH 5.0 versus pH 7.4; cited from earlier work.

Regarding `C=CCNC1=C2C[C@@H](C)C[C@H](OC)[C@H](O)[C@@H](C)/C=C(\C)[C@H](OC(N)=O)[C@@H](OC)/C=C\C=C(/C)C(=O)NC(=CC1=O)C2=O` [Formulation 17AAG, 17 allylamino, 17 demethoxygeldanamycin], the “Cytotoxic effect at low concentrations” value in the data set with SKBR3 and in the data set on MCF7 was “did not show any significant cytotoxic effect” in each case.

For the molecule `C=C(C)C(=O)OCCOC(OCCOC(=O)C(=C)C)c1ccc(OC)cc1OC` [di (2-methacryloyloxyethoxy)-[2,4-dimethoxyphenyl]methane], the Hydrolysis rate result in data set [1] was “hydrolyzes much faster at pH 5.0 than at pH 7.4”.

The values are drawn from patent US11986557B2, “Stealth nanoparticles” (HOWARD UNIVERSITY, priority 2018, dated 2024).
